The subject of experiment [1] is MDA-MB-231 tumor xenograft. The experiment in a line: In vivo efficacy in MDA-MB-231 tumor xenograft. The arrangement: species or system female athymic nude mice. The conditions noted are these: Kaplan Meier. On the procedure: Female athymic nude mice, 6 weeks of age, were purchased from Envigo Corporation.
Human breast cancer cell lines MDA-MB-231 were purchased from ATCC and were cultured and expanded in DMEM medium supplemented with 10% FBS, 100 units/ml of penicillin and 100 μg/ml of streptomycin at 37° C. in a 5% CO2 humidified environment for a period of 2-3 weeks before harvesting for implantation. Cell viability determined by Trypan blue dye exclusion assay was >90% before implantation. 4 million MDA-MB-231 cells in 100 μl of PBS were inoculated to the right upper flank of each mouse by s.c. injection.
Tumor volume measurement was started at day 25 after tumor cell inoculation and performed twice weekly. The longest longitudinal diameter as length and the widest transverse diameter as width were measured by using a digital caliper. Tumor volume (TV) was then calculated by the formula: TV=[length×(width)^2]/2 and were analyzed in Excel.
The treatment was started when average tumor size reached ˜400 mm^3.
Mice were euthanized when tumor size reached 2000 mm^3.
After tumor-bearing mice were randomized, 0.9% saline, anti-PDL1, Irinotecan 15, albumin bound non-toxic paclitaxel (NTP), free SN-38 at 7.5 and 15 mg/kg (SN38 7.5 and 15), albumin bound SN-38 at 7.5 and 15 mg/kg (Nab 7.5 and 15), anti-PDL1 plus SN38 Nab delivered at the same time in separate injections (PDL1+Nab15), or anti-PDL1 coated albumin bound SN-38 at 7.5 and 15 mg/kg (NIC 7.5 and NIC 15) were administered. Albumin bound SN-38 (Nab) and anti-PDL1 coated SN-38 Nab (NIC) were made as described above. Drugs were diluted in 0.9% saline and administered to the athymic nude mice in 100 μl by IV injections in the tail vein. SN-38 in all forms was given at 7.5 and 15 mg/kg in a single dose.
Raw data of tumor measurements (FIG. 7A-FIG. 7K) were analyzed in Excel. Tumor growth curves, day 7 tumor response and Kaplan-Meier survival curves were plotted using GraphPad Prism 8.0 software. Data from day 7 tumor response were compared using student's t-test. P values of less than 0.05 were considered significant (FIG. 8).
In MDA-MB-231 tumor xenograft model tumor responses were determined at day 7 using the equation: {([…])/tumor size day 0}*100. Differences in tumor response were determined by student's t-test in GraphPad Prism software 8.0. Percent change above the zero line indicates tumor growth, and below the zero line indicates tumor shrinking. […]
Kaplan Meier curves for the MDA-MB-231 xenotransplant model were generated in GraphPad Prism software 8.0 and median survival was determined to be 28, 34, 30, 24.5, 30, and 42.5 for the saline, anti-PDL1, Irinotecan 15, NTP, free SN38 7.5, and free SN38 15, respectively. […]

Experiment [2] concerns the target T1, SN38:NTP Nab (albumin nanoparticles made with non-toxic paclitaxel derivative and SN38) (human, UniProt P02768 25-609).
T1 construct: also called SN38 Nab
Nature of the experiment: zeta potential (Zetasizer), SN38:NTP:STI3031 NIC against SN38:NTP Nab.

Experiment [3] has as its target nab-paclitaxel (Taxol) nanoparticles with SN38 (human) (UniProt P02768). Nature of the experiment: zeta potential (Zetasizer), nanoparticles with 2, 4, 6 or 8 mg/ml antibody.

Regarding `CCc1c2c(nc3ccc(OC(=O)N4CCC(N5CCCCC5)CC4)cc13)-c1cc3c(c(=O)n1C2)COC(=O)[C@]3(O)CC` [Irinotecan, irinotecan], the median survival in experiment [1] (15 mg/kg, IV) stood at 30.
On to `CCc1c2c(nc3ccc(O)cc13)-c1cc3c(c(=O)n1C2)COC(=O)[C@]3(O)CC` [SN38], for which the median survival in experiment [1] (7.5 mg/kg, single IV dose) stood at 30; in experiment [1] (15 mg/kg, IV), 42.5.
In experiment [1] (IV injection, dose not given), “anti-PDL1: anti-PDL1 H6B1L-EM antibody (STI3031), HC/LC SEQ ID NO. 1/SEQ ID NO. 2” returned a median survival of 34.

B1: anti-PDL1 H6B1L-EM antibody (STI3031) (antibody, human IgG1, lambda, V domains shown)
VH: QMQLVQSGAEVKKPGSSVKVSCKASGGTFSSYAYSWVRQAPGQGLEWMGGIIPSFGTANYAQKFQGRVTITADESTSTAYMELSSLRSEDTAVYYCARGPIVATITPLDYWGQGTLVTVSS
VL: SYVLTQPPSVSVAPGKTATIACGGENIGRKTVHWYQQKPGQAPVLVIYYDSDRPSGIPERFSGSNSGNTATLTISRVEAGDEADYYCLVWDSSSDHRIFGGGTKLTVLG
notes: also called PDL1 antibody
In the case of B1, in experiment [2], the binding result is given as “binds”. The molecule further returned an antibody concentration at which zeta potential reaches its maximum in experiment [3] of 4 mg/mL.

Values taken from patent US20230338574A1, “ANTIBODY-NANOPARTICLE COMPLEXES AND METHODS FOR MAKING AND USING THE SAME” (priority 2020, published 2023).
